# Measurements reported in US20250144092A1, “TREATMENT OF PSYCHIATRIC OR NEUROLOGICAL DISORDERS IN PATIENTS WITH PROMINENT ANHEDONIA USING IRDABISANT AS A MONOTHERAPY OR IN COMBINATION WITH AN ANTIPSYCHOTIC AGENT” (Alto Neuroscience, Inc., priority 2023, published 2025).
# Counter-ions that a name gives are not always drawn.
# What was measured:
# [1] = tested on: dopamine release in the nucleus accumbens; experiment: in vivo microdialysis in freely moving rats, dopamine efflux in nucleus accumbens; settings: for dopamine release in the nucleus accumbens: basal conditions, IP administration, monitored 210 minutes
# Protocol: To determine whether irdabisant (or pharmaceutically acceptable salt thereof, such as irdabisant hydrochloride) leads to dopamine release in the nucleus accumbens under basal conditions similar to those in which pitolisant, ABT-239 and JNJ-39220675 were tested and found to have no effect, in vivo microdialysis was performed in freely moving rats. Dopamine levels were monitored for 210 minutes following compound administration. Irdabisant hydrochloride was administered intraperitoneally (IP) at 0.001, 0.01, 0.3 and 10 mg/kg for 30 minutes following an IP vehicle (0.5% methylcellulose and 0.2% Tween 80) injection.
# Male Sprague-Dawley albino rats weighing 250 to 350 g were housed two per cage and maintained in a controlled 12:12-h light/dark cycle and under constant temperature at 22° C., with free access to food and water. Rats were anesthetized with the modified Equithesin mixture (see, e.g., Li et al., Neuropsychopharm., 30, 1986-1995, 2005) and mounted in a stereotaxic frame. Stainless guide cannula with a dummy probe were placed and fixed by cranioplastic cement onto the cortex dorsal both to the medial prefrontal cortex (mPFC) and the nucleus accumbens (NAC). Rats received dual probe implantation for the mPFC and NAC (coordinates: A+3.2, L+0.8 (10° C. inclination), V-5.5 mm and A+2.0, L+1.5 to +1.7, V-7.5 mm, respectively, relative to bregma). Three to five days after cannulation, a dialysis probe was implanted into the mPFC and NAC under slight anesthesia with isoflurane. Rats were then housed individually overnight in a dialysis cage and the probes perfused with Dulbecco's phosphate-buffered saline solution with calcium (Sigma, St. Louis, MO) (138 mM NaCl, 8.1 mM Na2HPO4, 2.7 mM KCl, 1.5 mM KH2PO4, 0.5 mM MgCl2, 1.2 mM CaCl2), pH 7.4) at a rate of 0.4 μL/min. On the day of the experiment, the flow was increased to 1.5 μL/min. Sample collection began one hour later, and samples were collected every 30 min. After 60 min of stable baseline, each rat was dosed twice (indicated by arrows in FIG. 1-4); a vehicle dose at t=0 min., followed 30 minutes later by a dose of irdabisant hydrochloride. Dopamine (DA) and acetylcholine (Ach) samples, measured in the absence of cholinesterase inhibition, were monitored with HPLC coupled to mass spectrometry.
# Data are presented as percentages of baseline from baseline to 180 minutes after treatment. Mean baseline levels (i.e., an average of 60, 30, and 0 minutes before injection) of DA and ACh in the mPFC and NAC were designated as 100%. Non-transformed data were analyzed at each dose by assessing the change relative to the mean baseline using a one-way repeated measures ANOVA followed by a Bonferroni's post-hoc test as implemented in the SigmaPlot version 11.0.0.77 statistical package (Systat Software, Inc., San Jose CA).
# [2] = tested on: dopamine release in the striatum/nucleus accumbens; settings: striatal microdialysis, literature reports; cited from earlier work
# [3] = tested on: dopamine release in the cortex; settings: literature reports; cited from earlier work
# [4] = oral, after dosing; cited from earlier work
# [5] = cited from earlier work
structure (smiles),measurement,setting,value
C[C@@H]1CCCN1CCCOc1ccc(-c2ccc(=O)[nH]n2)cc1 [irdabisant hydrochloride],elevation in dopamine levels relative to baseline,"[1]; 0.01 mg/kg dose, 180 minutes post-dose, p=0.005, overall p<0.001",statistically significant elevation in dopamine levels
same,elevation in dopamine levels relative to baseline,"[1]; 0.3 mg/kg dose, 90 minute time point, p=0.02, overall p=0.003",significance
same,maximal effect on nucleus accumbens dopamine efflux,[1]; 10 mg/kg IP dose,205.6±6.86 % over basal
same,elevation in dopamine levels relative to baseline,"[1]; 10 mg/kg dose, 60, 90, 120 and 150 minute time points, overall p<0.001",significance was achieved
same,threshold dose for nucleus accumbens dopamine efflux,[1]; IP,0.01 mg/kg
same,dopamine release in the nucleus accumbens,[1],increased dopamine release was observed
"C[C@@H]1CCCN1CCc1cc2cc(-c3ccc(C#N)cc3)ccc2o1 [ABT-239, (R)-4-(2-(2-(2-methyl-|-pyrrolidinyl)ethyl)-1-benzofuran-5-yl)benzonitrile]",dopamine release in the nucleus accumbens,[2],lack of effect on dopamine release
C(#Cc1ccc(CN2CCOCC2)cc1)CCN1CCCCC1.Cl.Cl [JNJ-10181457],dopamine release in the cortex,[3],do not
"O=C(c1ccc(Oc2ccc(F)cc2)nc1)N1CCCN(C2CCC2)CC1 [JNJ-39220675, (4-cyclobutyl-1,4-diazepan-1-yl) (6-(4-fluorophenoxy)pyridin3-yl) methanone]",dopamine release in the nucleus accumbens,[2],lack of effect on dopamine release
"C[C@@H]1CCCN1CCCOc1ccc(-c2ccc(=O)[nH]n2)cc1 [irdabisant, 6-{4-[3-((R)-2-methyl-pyrrolidin-1-yl)-propoxy]-phenyl}-2H-pyridazin-3-one]",Tmax,[4],approximately 5 hours
same,dopamine release in the nucleus accumbens,[1],increases dopamine release
same,change over placebo on BL-VAS subscales,[5]; Baakman et al. 2019,increasing scores on BL-VAS alertness and contentedness/mood subscales
same,subjective experiences and cognitive effects,"[5]; healthy participants, after a single dose",promote positive subjective experiences and cognitive effects
Clc1ccc(CCCOCCCN2CCCCC2)cc1 [pitolisant],dopamine release in the nucleus accumbens,[2],no increase in release of dopamine release
